Test results reported in article PMC4374176 (ACS Chemical Biology, 2014).
One block for each compound: values may come before it. Ends that are not written are not given here. Peptide text beside a SMILES is read from it.

Tests used:
AT2R [1] = target: T1, AT2R (Homo sapiens, UniProt P50052); assay: Whole cell competition binding assay, AT2R-HEK-293 stable cell line; conditions: for Fold selectivity AT1R/AT2R (IC50AT1R/IC50AT2R): whole cell IC50 values; for IC50: whole cells, Table S4, read-out: Log IC50 AT2R (converted); for fold lower AT2R selectivity in comparison to [Y]6-AII: AT2R/AT1R selectivity relative to [Y]6-AII
T1 construct: expressed in transfected cells
T1 sequence (P50052 1-363): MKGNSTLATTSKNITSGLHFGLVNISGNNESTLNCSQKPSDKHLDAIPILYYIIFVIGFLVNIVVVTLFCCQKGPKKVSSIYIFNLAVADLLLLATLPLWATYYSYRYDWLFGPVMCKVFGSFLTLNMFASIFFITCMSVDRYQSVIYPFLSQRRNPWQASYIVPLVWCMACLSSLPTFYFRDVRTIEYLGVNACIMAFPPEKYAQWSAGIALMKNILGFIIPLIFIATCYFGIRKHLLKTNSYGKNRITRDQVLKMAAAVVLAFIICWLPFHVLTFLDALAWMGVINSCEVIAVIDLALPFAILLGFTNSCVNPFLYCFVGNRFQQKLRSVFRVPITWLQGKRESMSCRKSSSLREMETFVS
Text: (§1) Materials. AT2R receptor-specific blocker PD123319 was purchased from Sigma-Aldrich Chemical Co. (St. Louis, MO). Human AGTR2 pcDNA3.1+ was obtained from the UMR cDNA Resource Center (University of Missouri-Rolla, Rolla, MO). All other chemicals were of analytic grade. The AT1aR and AT2R constructs were a kind gift from Lazlo Hunyady (Semmelweis University, Budapest, Hungary;1).
(§2) Mutagenesis. AT2R mutants were generated as described elsewhere.2
Cell culture and transient transfection. HEK-293T cells were maintained at 37 °C in Dulbecco's modified Eagle's medium (DMEM) supplemented with 10% (v/v) fetal bovine serum (FBS), 2 mM glutamine, 100 U/ml penicillin, and 100 µg/ml streptomycin. Cells were transfected with either AT1R (pcDNA3.1), AT2R
(pcDNAI/Amp) or AT2R variants using GeneJuice transfection reagent according to the manufacturer’s instructions. Cells were harvested 48 hours after transfection, crude membranes were prepared and resuspended in binding buffer (50 mM Tris-HCl pH 7.4, 100 mM NaCl, 10 mM MgCl2, 1mM EDTA, 0.2% BSA and 0.025% Bacitracin, protease inhibitors) at a protein concentration of 3.3 μg/μl as determined by the amido black protein assay. For whole cells assays, HEK-293 cells stably transfected with either AT1R or the AT2R (kindly supplied by Professor W. Thomas, University of Queensland) were used. These cells were grown to approximately 80% confluence and were then re-plated into 48 well plates at 1x10^5 cells/well and grown for 48 hours at 37°C for a whole cell competition binding assay, as described previously.4 Minor differences between the binding assays performed on isolated membrane preparation and whole cells are probably due to the loss of G-protein in the former.5 PC12W cells, a substrain from a clonal isolation of a rat adrenal chromaffin cell tumor, were cultured in DMEM supplemented with 10% FBS, 100 units/ml penicillin and 100μg/ml streptomycin (Invitrogen, Carlsbad, CA) as previously described.6 The cells were incubated in a 5% CO2 humidified incubator at 37°C. Preparation of recombinant replication-deficient adenovirus containing the human AT2R coding region was carried out by VECTOR BIOLABS (Philadelphia, PA).
For gene transduction with adenoviral vectors cells were seeded at 1.2 x 10^5 cells per well in a 6-well plate. After 24 hours, cells were incubated at 37°C for 6 hours in serum-free DMEM containing adenoviral vectors (Ad-AT2R 30 multiplicity of infection (MOI)), and shaken lightly every fifteen minutes. After 6 hr incubation, cells were cultured in 10% FBS containing DMEM at 37°C, 5% CO2 for an additional 24 hours.
Cells were then trypsinized and subcultured at a density of 2 x 10^3 cells per well on a 24-well plate. For the evaluation of the effect of [Y]6-AII analogue on the neurite outgrowth of PC12W cells, at 24 hours after subculture, control cells and the AT2R […]
Radioligand binding assays. Saturation curves on cell membranes were obtained using 10 μg protein per data point and a range of *125I]-AII (Amersham) concentration […]
(§3) 0-10 nM (8 data points in triplicate). Non-specific binding was determined in […]
Competition assays were performed using a concentration […]
the Figure 3. Samples were incubated for 2 hours at 4°C. Receptor-bound and free radioligand were separated by filtration through Whatman GF/B filters, pre-soaked with 0.3% polyethylamine. The filters were washed with 5 ml of ice-cold binding buffer and transferred to scintillation tubes. Radioactivity was counted on a Beckman LS6000 liquid scintillation counter and data were analyzed by non-linear regression using Prism software (GraphPad). Ki values were calculated according to the Cheng […]
Experiments on whole cells were performed in both AT1R- and AT2R-HEK-293 stable cell lines, as previously described in detail4 with minor modifications. Novel peptides and references compounds, CGP42112 and candesartan, were examined for their ability to inhibit specific binding of [125I]-Ang II, and nonspecific binding was determined using 10μM cold Ang II. […]

AT1R = target: T2, AT1R (Rattus norvegicus, UniProt P25095); assay: [125I]-AII radioligand binding on isolated membranes, AT1R; conditions: competition with [125I]-AII, ligand concentration range 6.4 x 10-12-2.5 x 10^-6 M
T2 construct: expressed in transfected cells; host or cells: HEK-293T, transient, crude membranes
T2 sequence (P25095 1-359): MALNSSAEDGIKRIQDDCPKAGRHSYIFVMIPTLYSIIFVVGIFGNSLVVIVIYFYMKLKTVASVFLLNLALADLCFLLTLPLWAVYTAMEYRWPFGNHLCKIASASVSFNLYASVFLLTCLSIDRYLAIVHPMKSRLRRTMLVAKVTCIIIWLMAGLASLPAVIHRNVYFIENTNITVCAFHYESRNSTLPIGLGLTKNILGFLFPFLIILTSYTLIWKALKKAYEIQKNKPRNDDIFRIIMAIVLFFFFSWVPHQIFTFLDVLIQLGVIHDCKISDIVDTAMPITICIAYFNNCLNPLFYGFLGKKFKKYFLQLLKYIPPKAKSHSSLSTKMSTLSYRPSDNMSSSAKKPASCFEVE

[2] = tested on: AT2R-overexpressing PC12W cells; assay: Neurite outgrowth in AT2R-overexpressing PC12W cells; assay type: cell-based, rat; conditions: Ad-AT2R transduced PC12W cells, 1 nM, 24 h stimulation; dose-dependent in the range of 1 pM to 100 nM
Experimental: Figure 3 (a) Competition binding assays of [Y]^6-AII analogue to AT1R, AT2R wild type, and mutants: AT1R, open circle; wild type AT2R, black circles; AT2R-Y189A, blue diamonds; AT2R-Y189N, green triangle; AT2R-F272(6.51)A, red square; AT2R-F272(6.51)H, orange triangle. Kd and Ki values are given in Supplementary Table S3. […] The neurite outgrowth-positive cells were defined as the cells with neurite length longer than their cell diameters. This experiment was carried out in triplicate and repeated twice.
as §1
Mutagenesis. AT2R mutants were generated as described elsewhere.2 […]
(§4) (pcDNAI/Amp) or AT2R variants using GeneJuice transfection reagent according to the manufacturer’s instructions. Cells were harvested 48 hours after transfection, crude membranes were prepared and resuspended in binding buffer (50 mM Tris-HCl pH 7.4, 100 mM NaCl, 10 mM MgCl2, 1mM EDTA, 0.2% BSA and 0.025% Bacitracin, protease inhibitors) at a protein concentration of 3.3 μg/μl as determined by the amido black protein assay. […]

AT2R [3] = assay: [125I]-AII radioligand binding on isolated membranes, wild type AT2R; conditions: saturation assay, membranes of transfected HEK-293T cells, 2 hours on ice
Text: as §1, §2
Cell culture and transient transfection. HEK-293T cells were maintained at 37 °C in Dulbecco's modified Eagle's medium (DMEM) supplemented with 10% (v/v) fetal bovine serum (FBS), 2 mM glutamine, 100 U/ml penicillin, and 100 µg/ml streptomycin. […]
as §4, §3
the Figure 3. […] Radioactivity was counted on a Beckman LS6000 liquid scintillation counter and data were analyzed by non-linear regression using Prism software (GraphPad). […]

PAR1 receptor = tested on: PAR1 receptor; parameters: method as in Faruqi T., et al. [12]; conditions: ref Faruqi T., et al. [12]; cited from earlier work
PAR4 receptor = tested on: PAR4 receptor; parameters: method as in Faruqi T., et al. [12]; conditions: ref Faruqi T., et al. [12]; cited from earlier work

Compound: CC[C@H](C)[C@H](NC(=O)[C@H](Cc1ccc(O)cc1)NC(=O)[C@@H](NC(=O)[C@H](CCCNC(=N)N)NC(=O)[C@@H](N)CC(=O)O)C(C)C)C(=O)N[C@@H](Cc1ccc(OP(=O)(O)O)cc1)C(=O)N1CCC[C@H]1C(=O)N[C@@H](Cc1ccccc1)C(=O)O [[4-OPO3H2-F]^6-AII, D1-R2-V3-Y4-I5-(4-OPO3H2-F)6-P7-F8] (HELM PEPTIDE1{D.R.V.Y.I.[O=C([C@H](Cc1ccc(OP(=O)(O)O)cc1)N[*:1])[*:2]].P.F}$$$$V2.0)
- Fold selectivity AT1R/AT2R (IC50AT1R/IC50AT2R) (AT2R [1]): 4479 fold
- IC50 (AT2R [1]): 9.57 nM
- Ki AT1R (AT1R): No detectable competitive binding

Compound: DRVYIFPF [[F]^6-AII, D1-R2-V3-Y4-I5-F6-P7-F8] [listing 1 of 2 here]
- Fold selectivity AT1R/AT2R (IC50AT1R/IC50AT2R) (AT2R [1]): 4786 fold
- fold lower AT2R selectivity in comparison to [Y]6-AII (AT2R [1]): ~4 fold

Compound: [125I]-AII: radioiodinated AII, radioligand of the binding assays (DRVYIHPF; also: 125I label, position not given here; UniProt P01019 25-32, looked up)
- Kd (AT2R [3]): 2.3 nM

Compound: GYPGKF
- PAR1 receptor activity (PAR1 receptor): 0
- PAR4 receptor activity (PAR4 receptor): 55

Compound: GFPGKF
- PAR1 receptor activity (PAR1 receptor): 35
- PAR4 receptor activity (PAR4 receptor): 53

Compound: G(F)PGKF
- PAR1 receptor activity (PAR1 receptor): 111
- PAR4 receptor activity (PAR4 receptor): 61

Compound: CC[C@H](C)[C@H](NC(=O)[C@H](Cc1ccc(O)cc1)NC(=O)[C@@H](NC(=O)[C@H](CCCNC(=N)N)NC(=O)[C@@H](N)CC(=O)O)C(C)C)C(=O)N[C@@H](Cc1ccc([N+](=O)[O-])cc1)C(=O)N1CCC[C@H]1C(=O)N[C@@H](Cc1ccccc1)C(=O)O [[4-NO2-F]^6-AII, D1-R2-V3-Y4-I5-(4-NO2-F)6-P7-F8] (HELM PEPTIDE1{D.R.V.Y.I.[O=C([C@H](Cc1ccc([N+](=O)[O-])cc1)N[*:1])[*:2]].P.F}$$$$V2.0)
- Fold selectivity AT1R/AT2R (IC50AT1R/IC50AT2R) (AT2R [1]): 694 fold
- fold lower AT2R selectivity in comparison to [Y]6-AII (AT2R [1]): 26 fold
- IC50 (AT2R [1]): 4.92 nM

Compound: CC[C@H](C)[C@H](NC(=O)[C@@H]1CCCN1C(=O)[C@H](Cc1c[nH]cn1)NC(=O)[C@H](CCCCNC(=O)[C@H](CCCN=C(N)N)NC(=O)OCc1ccccc1)NC(=O)[C@H](Cc1ccc(O)cc1)NC(=O)c1cccnc1)C(=O)O [CGP42112] (HELM PEPTIDE1{[O=C(c1cccnc1)[*:2]].Y.K.H.P.I}|PEPTIDE2{[O=C(OCc1ccccc1)[*:2]].R}$PEPTIDE1,PEPTIDE2,3:R3-2:R2$$$V2.0)
- IC50 (AT2R [1]): 0.558 nM

Further lines, with some results ahead:

- Fold selectivity AT1R/AT2R (IC50AT1R/IC50AT2R) (AT2R [1]): 18,000 fold
- Ki AT1R (AT1R): No detectable competitive binding
Compound: DRVYIYPF [[Y]^6-AII, D1-R2-V3-Y4-I5-Y6-P7-F8]

- Kd (AT2R [3]): 2.3 nM
Compound: CC[C@H](C)[C@H](NC(=O)[C@H](Cc1ccc(O)cc1)NC(=O)[C@@H](NC(=O)[C@H](CCCNC(=N)N)NC(=O)[C@@H](N)CC(=O)O)C(C)C)C(=O)N[C@@H](Cc1c[nH]cn1)C(=O)N1CCC[C@H]1C(=O)N[C@@H](Cc1ccccc1)C(=O)O [AII]
- neurite outgrowth [2]: significantly stimulated neurite outgrowth

- IC50 (AT2R [1]): 1.4 nM
Compound: DRVYIFPF [[F]^6-AII, D1-R2-V3-Y4-I5-F6-P7-F8] [listing 2 of 2 here]

- IC50 (AT2R [1]): 13500 nM
Compound: CCOc1nc2cccc(C(=O)O)c2n1Cc1ccc(-c2ccccc2-c2nnn[nH]2)cc1 [Candesartan, candesartan]
